According to US6534448B1, “Composition and method for acidizing wells and equipment without damaging precipitation” (Halliburton Energy Services, Inc., priority 2000, dated 2003):

Tests used:
[1] = in vivo
[2] = test system: marine copepod Arcatia tonsa; assay: Static 48 hour toxicity test on marine copepod (draft ISO 14669:1999(E)); type: in vivo; settings: test range 200.0 to 2000.0 mg l-1
Experimental: Test concentrations of sodium molybdate crystalline were prepared over the range 200.0 mg 1^−1 to 2000.0 mg 1^−1.

[3] = Amounts of electron transfer agents needed to reduce 2500 ppm ferric ion in less than five minutes (Example III); settings: 15 lbs./Mgal Na2MoO4 in 15% HCl, room temperature
Experimental: The above concentrations were arrived at from room temperature experiments.
Next, tests were conducted to determine the optimum amounts of the electron transfer agent(s) that should be employed in the inventive acidizing composition. Each test fluid included 1% by volume thioglycolic acid, based on the total volume of the acid solution and was contaminated with 2500 ppm ferric ion (by adding a sufficient amount of ferric chloride to the fluid).
These fluids also included the primary electron transfer agent, either sodium molybdate or ammonium molybdate. The amount the molybdate utilized was varied.
These fluids also included the primary electron transfer agent, either sodium molybdate or ammonium molybdate, and the supplemental electron transfer agent (potassium iodide). The amounts of the molybdate and potassium iodide utilized were varied.
The tests were carried out at room temperature. The test fluids were contaminated with 2500 ppm of ferric ion by adding a corresponding amount of iron chloride (FeCl3.H2O) thereto.
It was determined that a complete reduction had taken place when the test fluids changed back to the red-brown color.
It was determined that a complete reduction had taken place when the test fluids changed back to the emerald green color (verified by UV-VIS experiments).

| Compound | concentration found to be toxic [1] | 24 hour EC50 (concentration which immobilized 50% of the copepods) ([2]; 24 hours) | 48 hour EC50 (concentration which immobilized 50% of the copepods) ([2]; 48 hours) | time required for reduction of 2500 ppm Fe(III) to Fe(II) [3] |
| --- | --- | --- | --- | --- |
| [Cl][Cu] [cuprous chloride] | ≥ 10 ng/mL |  |  |  |
| [Na+].[Na+].[O]=[Mo](=[O])([O-])[O-] [sodium molybdate crystalline, sodium molybdate] |  | > 2000.0 µg/mL | > 2000.0 µg/mL | 2 to 3 min |
